The supplement of paper PMC10949913

Columns and labels:
Settings in all cases: 48 h
CU-ACC1 [1] = assay: AC50 viability; higher = less potent
How it was run: (§1)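 Cells from three adrenocortical carcinoma lines were seeded at 500–1,000 cells/well in 5 µL medium in 1,536-well plates. Each library compound was added as 23 nL at 11 concentrations, and after 48 h CellTiter-Glo was added for 15 minutes at room temperature before reading luminescence. Plate-wise normalisation to vehicle and empty-well controls preceded curve fitting. AC50 and area under the curve were calculated only for inhibitory or non-responding curve classes.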

CU-ACC1 [2] = assay: area under concentration-response curve (viability) (AUC (a.u.)); higher = less active
How it was run: as §1

CU-ACC2 = assay: as above
How it was run: as §1

NCI-H295R = assay: as above
How it was run: as §1

SMILES | AC50 viability (CU-ACC1 [1]) | area under concentration-response curve (CU-ACC1 [2]) | area under concentration-response curve (CU-ACC2) | area under concentration-response curve (NCI-H295R)
O=C1c2cccc(O)c2C(=O)c2c(O)cc(CO)cc21 | 10.5 µM | 508 | 656 | 575
c1ccc2c(-c3cnn4cc(-c5ccc(OCCN6CCOCC6)cc5)cnc34)ccnc2c1 | 4.56 µM | 395 | 637 | 568
CCNC(=O)c1noc(-c2cc(C(C)C)c(O)cc2O)c1-c1ccc(CN2CCOCC2)cc1 | 0.0118 µM | 226 | 114 | 198
Cc1cccc(CC(=O)N2CCc3c2ccc(-c2cn(C)c4ncnc(N)c24)c3F)n1 | 4.68 µM | 487 | 644 | 551
CN(NC(=O)CC(=O)NN(C)C(=S)c1ccccc1)C(=S)c1ccccc1 | 3.72 µM | 402 | 567 | 521
O=C(NOCCO)c1ccc2cncn2c1Nc1ccc(I)cc1F | 14.8 µM | 461 | 598 | 549
Cc1[nH]c2ccc(F)cc2c1-c1nc2c3cccnc3c3ncccc3c2[nH]1 | 1.52 µM | 326 | 498 | 424
N=C(N)Nc1ccc(C(=O)Oc2ccc3cc(C(=N)N)ccc3c2)cc1 | 33.2 µM | 460 | 585 | 532
CCN(CC)CCCC[C@H](NC(=O)[C@H](CC(C)C)NC(=O)[C@H](C)NC(=O)[C@H](Cc1ccccc1)NC(=O)c1ccc(C(C)(C)C)cc1)C(=O)N[C@@H](CO)C(=O)OC | 0.0132 µM | 446 | 424 | 421
CC(C)c1noc(N2CCC(COc3ccc(-c4ccc([S+](C)(=O)[O-])cc4)nc3)CC2)n1 | 8.33 µM | 419 | 583 | 496
Cc1cc(-c2ncc(CC(=O)Nc3ccc(-c4cnccn4)cn3)cc2C)ccn1 | 7.42 µM | 429 | 597 | 500
Cc1c(CN2CCC(Nc3ncnc4sc(CC(F)(F)F)cc34)CC2)ccc2c1cc(C#N)n2Cc1cn[nH]c1 | 3.32 µM | 411 | 540 | 453
S=C(NCc1ccc2c(c1)OCO2)N1CCN(c2ncnc3c2oc2ccccc23)CC1 | 2.95 µM | 383 | 567 | 483
FC1=CC=C(SC/2=N/N3\C=N/C(=O)/C(=C3/C=C2)C4=C(Cl)C=CC=C4Cl)C(=C1)F | 0.0372 µM | 453 | 562 | 541
O=C(O)c1ccc(O)c2ncccc12 | 33.2 µM | 458 | 491 | 447
CN[C@@H]1C[C@H]2O[C@@](C)([C@@H]1OC)n1c3ccccc3c3c4c(c5c6ccccc6n2c5c31)C(=O)NC4 | 0.833 µM | 385 | 359 | 346
CN(CC#C)C/C1=C/C2=CC=CC=C2OC3=CC=CC=C13 | 33.2 µM | 419 | 524 | 546
CN[S+]([O-])(=O)NC1=NC=CC(=C1F)CC/2=C(C)/C3=CC=C(OC4=NC=CC=N4)C=C3OC2=O | 7.42 µM | 441 | 611 | 577
Cn1c(=O)c2c(ncn2CC2OCCO2)n(C)c1=O | 0.00235 µM | 294 | 375 | 452
Cc1nc2cnc3ccc(C#Cc4cccnc4)cc3c2n1-c1ccc(C(C)(C)C#N)cc1 | 0.661 µM | 402 | 557 | 492
N[S+](=O)([O-])c1ccc(NC(=S)N2CCN(C/C=C/c3ccccc3)CC2)cc1 | 20.9 µM | 494 | 583 | 523
CC1=C(C)C\2=C(S1)[N]3C(=NN=C3C(CC(=O)NC4=CC=C(O)C=C4)\N=C2C5=CC=C(Cl)C=C5)C (stereo not drawn) | 2.63 µM | 458 | 549 | 527
CC(C)(C)OC(=O)Nc1ccc(-c2cc(C(=O)NCCCCCCC(=O)NO)no2)cc1 | 14.8 µM | 479 | 598 | 564
CC(C)(C)NC(=O)Nc1cccc(Nc2ncc(F)c(NC(C)(C)CO)n2)c1 | 23.5 µM | 525 | 652 | 571
CCOCOC[C@H](C[C@H](C)C(=O)NO)NC(=O)c1ccc(Oc2ccccc2)cc1 | 23.5 µM | 512 | 636 | 595

SMILES | AC50 viability (CU-ACC1 [1]) | area under concentration-response curve (CU-ACC1 [2]) | area under concentration-response curve (CU-ACC2) | area under concentration-response curve (NCI-H295R)
COc1ccc(Cn2ccc3ccc(C(=O)NO)cc32)cc1 | 23.5 µM | 524 | 625 | 582
O=C(Nc1ccccc1Br)N[C@@H]1CCN(c2ccc(C(F)(F)F)cn2)C1 | 20.9 µM | 477 | 575 | 539
Cc1ccc(N[S+](=O)([O-])c2cccc(C#N)c2)c2[nH]cc(C#N)c12 | 0.833 µM | 451 | 576 | 489
CN(C)CCOc1cc(-c2cn[nH]c2)ccc1NC(=O)C1COc2ccccc2O1 (stereo not drawn) | 20.9 µM | 390 | 426 | 452
Nc1nccc(-c2c(-c3ccc(F)cc3)ncn2C2CCCCC2)n1 | 14.8 µM | 480 | 621 | 556
CC[C@H](C)C(=O)O[C@H]1CC\C=C2\C=C/[C@H](C)[C@H](CC[C@@H]3C[C@@H](O)CC(=O)O3)[C@@H]12 | 14.8 µM | 426 | 415 | 484
O=C(O)c1nn(Cc2ccc(Cl)cc2Cl)c2ccccc12 | 1.66 µM | 442 | 464 | 440
O=C(NC[C@H](O)CO)c1ccncc1Nc1ccc(I)cc1F | 11.8 µM | 397 | 506 | 537
CC(=O)[C@]1(N)Cc2c(O)c3c(c(O)c2[C@@H](O[C@H]2C[C@H](O)[C@H](O)CO2)C1)C(=O)c1ccccc1C3=O | 16.6 µM | 474 | 487 | 534
Cc1c(C(=O)N2CCOc3ccc(-c4ccc(N)nc4)cc3C2)ccc([S+](C)(=O)[O-])c1F | 8.33 µM | 428 | 516 | 473
CCCn1c(=O)c2[nH]c(C34CC5CC3C[C@@H](C5)C4)nc2n(CCC)c1=O | 26.3 µM | 435 | 524 | 489
Fc1ccc(CNc2ncnc3ccc(F)cc23)cc1 | 2.35 µM | 415 | 577 | 509
CC(C)CC(=O)Nc1n[nH]c2c1CN(C(=O)C1CCN(C)CC1)C2(C)C | 16.6 µM | 514 | 574 | 562
CC(C)n1c(/C=C/[C@H](O)C[C@H](O)CC(=O)O)c(-c2ccc(F)cc2)c2ccccc21 | 10.5 µM | 506 | 617 | 567
Cc1c[nH]c(/C=C2\C(=O)Nc3ccccc32)c1CCC(=O)O | 0.0105 µM | 428 | 353 | 381
COc1ccc([S+](=O)([O-])Nc2cccnc2Nc2ccc(O)cc2)cc1 | 4.68 µM | 479 | 569 | 498
FC1=C(C=C(C/C2=N/NC(=O)C3=C2C=CC=C3)C=C1)C(=O)N4CCN(CC4)C(=O)C5CC5 | 10.5 µM | 456 | 464 | 434
Cc1cc(OCCC[S+](C)(=O)[O-])cc(C)c1-c1cccc(COc2ccc3c(c2)OC[C@H]3CC(=O)O)c1 | 20.9 µM | 425 | 528 | 491
OC[C@H](Cc1ccccc1)Nc1nc(Oc2ccc3c(c2)CCC3)nc2c1ncn2Cc1ccc(-c2ccccc2)cc1 | 14.8 µM | 430 | 524 | 477
O=C1CCc2cc(OCCCCc3nnnn3C3CCCCC3)ccc2N1 | 18.6 µM | 468 | 579 | 531
CC#C[C@@H](CC(=O)O)c1ccc(OCc2cccc(-c3ccc(C(F)(F)F)cc3)c2)cc1 | 1.48 µM | 406 | 506 | 411
CNC(=O)c1cc(Oc2ccc3nc(N[C@@H]4CCCC[C@H]4O)sc3c2)ccn1 | 20.9 µM | 481 | 583 | 548
C[C@@H]1CC[C@@]2(CC[C@]3(C)\C(=C/C[C@@H]4[C@@]5(C)CC[C@H](O)C(C)(C)[C@@H]5CC[C@@]34C)[C@@H]2[C@H]1C)C(O)=O | 9.34 µM | 402 | 441 | 419
CCOC(=O)c1c(CSc2ccccc2)n(C)c2cc(Br)c(O)c(CN(C)C)c12 | 37.2 µM | 476 | 600 | –
Clc1ccc(Cn2c(CN3CCCC3)nc3ccccc32)cc1 | 29.5 µM | 447 | 576 | –
